Measurements reported in US7563921B2, “2-cyano-3(halo)alkoxy-benzenesulfonamide compounds for combating animal pests” (BASF Aktiengesellschaft, priority 2004, dated 2009).

Legend:
[1] = test system: Green Peach Aphid (Myzus persicae); test: Green Peach Aphid foliar dip test on pepper plants; assay type: in vivo; conditions: 120 h, pepper plant leaves dipped, aphid mortality after 5 days, read-out: mortality in comparison with untreated controls
Text: Green Peach Aphid (Myzus persicae)
(§1) The active compounds were formulated in 50:50 acetone:water and 100 ppm Kinetic® surfactant.
Pepper plants in the 2nd leaf-pair stage (variety ‘California Wonder’) were infested with approximately 40 laboratory-reared aphids by placing infested leaf sections on top of the test plants. The leaf sections were removed after 24 hr. The leaves of the intact plants were dipped into gradient solutions of the test compound and allowed to dry. Test plants were maintained under fluorescent light (24 hour photoperiod) at about 25° C. and 20-40% relative humidity. Aphid mortality on the treated plants, relative to mortality on check plants, was determined after 5 days.

[2] = test system: cotton aphids (Aphis gossypil); test: Cotton seed treatment, control of foliar aphids; assay type: in vivo, Aphis gossypii; conditions: live aphids counted four days after infestation, versus solvent blank controls
Procedure: Experimental compound no. 1 (N,N-Dimethyl-2-cyano-3-difluoromethoxyphenylsulfonamide) was evaluated to determine their insecticidal efficacy for control of foliar aphids when applied as seed treatment.
Experimental compound no. 1 was formulated by dissolving 10.5 mg technical material in 45 μl acetone then adding 255 μl 0.05% aqueous TWEEN 20 (polyoxyethylene (20) sorbitan monolaurate).
Twenty-five cotton seeds (variety Sure-Grow 747) were placed in a 20-ml glass vial and then 150 μl of the compound formulation were pipetted onto the side of the vial just above the seeds. Vials were vortexed for 30 seconds to rapidly spin the seeds within the vial to apply the compound to the seeds. Treated seeds were then air-dried. […]
Twenty-four cotton seeds were planted in Metro Mix potting mix in twelve 7.6-cm-square pots, 2 seeds per pot. Crop selectivity was determined by comparing seedling emergence and recording any foliar and shoot symptoms.
Seedling plants were thinned to one plant per pot. […] The exact number of aphids transferred to each plant was recorded.
Four days after infestation, live aphids on each plant were counted. The aphid population increase for each control plant was calculated by dividing the final aphid population by the initial population. The median aphid population increase on the solvent blank controls was then calculated. […]

Bean Aphid (Aphis fabae) = test: Bean Aphid plant dip test on nasturtium plants; assay type: in vivo; conditions: 72 h, nasturtium plants dipped, aphid mortality after 3 days, read-out: mortality in comparison with untreated controls
Text: as §1
Nasturtium plants grown in Metro mix in the 1st leaf-pair stage (variety ‘Mixed Jewel’) were infested with approximately 20-30 laboratory-reared aphids by placing infested cut plants on top of the test plants. The cut plants were removed after 24 hr. Each plant was dipped into the test solution to provide complete coverage of the foliage, stem, protruding seed surface and surrounding cube surface and allowed to dry in the fume hood. The treated plants were kept at about 25° C. with continuous fluorescent light. Aphid mortality is determined after 3 days.

[3] = test system: Cotton Aphid (Aphis gossypii); test: Cotton Aphid cotyledon dip test on cotton plants; assay type: in vivo; conditions: 120 h, cotton cotyledons dipped, mortality counts after 5 days, read-out: mortality in comparison with untreated controls
Text: Cotton Aphid (Aphis gossypii)
as §1
Cotton plants in the cotyledon stage (variety ‘Delta Pine’, one plant per pot) were infested by placing a heavily infested leaf from the main colony on top of each cotyledons. The aphids were allowed to transfer to the host plant overnight, and the leaf used to transfer the aphids was removed. The cotyledons were dipped in the test solution and allowed to dry. After 5 days, mortality counts were made.

| Structure (SMILES) | mortality at 300 ppm [1] [%] | reduction of the aphid population [2] | mortality at 300 ppm (Bean Aphid (Aphis fabae)) [%] | mortality at 300 ppm [3] [%] |
| --- | --- | --- | --- | --- |
| CN(C)S(=O)(=O)c1cccc(OC(F)F)c1C#N [Compound 1, N,N-Dimethyl-2-cyano-3-difluoromethoxyphenylsulfonamide] | > 85 | significant reduction of the aphid population | > 85 | > 85 |
| COc1cccc(S(=O)(=O)N(C)C)c1C#N [Compound 2, N,N-Dimethyl-2-cyano-3-methoxyphenylsulfonamide] | > 85 |  | > 85 | > 85 |
